Measurements: PubChem BioAssay AID1996
Converted amounts (≈) assume the structure as drawn.

Conditions: buffer; pH 7.4; 200.0 µM

SMILES | solubility kinetic [µg/mL]
C=CCn1c(SCC(=O)NCC2CCCO2)nc2sc(CC)cc2c1=O (centres undefined) | > 59
O=C(COC(=O)c1ccc(F)cc1)Nc1ccc(Cl)cn1 | 0.8 (≈ 2.59 µM)
O=C(NCCCN1CCOCC1)c1cn(-c2ccccc2)nc1-c1ccc(F)cc1 | > 61.3
O=C(O)c1cc(-c2cccs2)nc2ccc(Br)cc12 | > 50.1
O=C(CN1C(=O)NC2(CCCCCC2)C1=O)NCc1ccc(Cl)cc1 | 23.5 (≈ 64.6 µM)
O=C(O)c1ccc(C(=O)Nc2cccc3ccccc23)c(C(=O)O)c1 | > 50.3
O=C(Cc1ccccc1F)Nc1ccc(S(=O)(=O)N2CCCC2)cc1 | 44.9 (≈ 124 µM)
Cc1ccccc1OCC(=O)Nc1ccc([N+](=O)[O-])cc1 | 0.4 (≈ 1.4 µM)
COc1ccc(C(=O)CNc2ccc(C)cc2C)cc1 | 5.8 (≈ 21.5 µM)
CCCCCC1CCC(c2ccc(/C(N)=N/O)cc2)CC1 (centres undefined) | < 0.3
C=CCNC(=O)[C@H]1N2C(=O)c3ccccc3C2SC1(C)C (some centres undefined) | > 45.4
O=C(NC(=O)c1ccc(F)cc1F)Nc1ccc(Cl)cc1 | 2.8 (≈ 9.01 µM)
COc1ccc(N2C(=O)C(CN3CCCCC3)C2c2ccccc2)cc1 (centres undefined) | 51.7 (≈ 148 µM)
CC(C)(C)NC(=O)COC(=O)c1ccc(Cl)cc1O | 7.3 (≈ 25.5 µM)
Cc1cc(C)cc(NC(=O)CN2C(=O)NC(Cc3c[nH]c4ccccc34)C2=O)c1 (centres undefined) | 2 (≈ 5.12 µM)
CC(=O)Nc1ccc(NC(=O)Nc2ccccc2)cc1 | 6.3 (≈ 23.4 µM)
CN(Cc1c(F)cccc1Cl)S(=O)(=O)c1cccs1 | < 0.7
Cc1ccc(NC(=O)C(Cc2ccccc2)n2cccc2)cc1 (centres undefined) | 1.9 (≈ 6.24 µM)
Cc1ccc2c(c1)N(CC(=O)N1CCCCCC1)C(=O)C(C)O2 (centres undefined) | > 47.5
N#Cc1ccc(CN2CCN(C(=O)CNS(=O)(=O)c3ccc4c(c3)OCCCO4)CC2)cc1 | 35.3 (≈ 75 µM)

SMILES | solubility kinetic [µg/mL]
CSc1cccc(NC(=O)C(=O)NCc2ccccc2)c1 | < 0.3
CC(=O)NCCC(=O)Nc1nc(-c2ccc3ccccc3c2)cs1 | 6.5 (≈ 19.2 µM)
COC(=O)c1sc(N(C)C)c(C#N)c1-c1ccccc1 | 1.8 (≈ 6.29 µM)
CN(C(=O)c1coc(=O)c2ccccc12)c1ccccc1Cl | 44.2 (≈ 141 µM)
O=C(O)CCC(=O)N1CCN(c2ncccc2C(F)(F)F)CC1 | 44.5 (≈ 134 µM)
Cc1cccc2c(=O)cc(C(F)(F)F)[nH]c12 | > 34.1
O=C(Nc1ccncc1)Nc1ccc(F)cc1 | 29.9 (≈ 129 µM)
NC(=O)NC(CC(=O)NCCc1ccccn1)c1ccccc1Cl (centres undefined) | > 52
COc1cccc(NS(=O)(=O)c2ccc3c(c2)CC(=O)N3)c1 | > 47.8
Cc1ccc(C)c(S(=O)(=O)N2CCN(C(=O)[C@@H]3CCCN3C(=O)c3cccs3)CC2)c1 | 40.4 (≈ 87.5 µM)
CCC(CC)NC(=O)CO/N=C/c1ccc(Cl)cc1Cl | 3 (≈ 9.46 µM)
CN(CC(=O)N1CCCC1)S(=O)(=O)c1ccc2ccccc2c1 | > 49.9
CN(C)C(=S)NC1CCS(=O)(=O)C1 (centres undefined) | > 33.3
O=[N+]([O-])c1ccccc1S(=O)(=O)c1ccccc1 | > 39.5
CC1CCN(C(=O)CNC(=O)c2cccc(OC(F)F)c2)CC1 | > 49
O=c1[nH]c(O)c(C=Nc2ccccc2Sc2ccccc2)c(=O)[nH]1 | 1.3 (≈ 3.83 µM)
O=C1[C@@H]2CSCN2C(=O)CN1Cc1c(F)cccc1Cl | > 47.2
O=C(O)CCCC(=O)N1CCOCCOCCOCCOCC1 | 48.2 (≈ 145 µM)
Cc1nc(-c2ccc(NC(=O)Cc3ccccc3)cc2)cs1 | 1 (≈ 3.24 µM)
COc1ccc(C(=O)Nc2ccc(C(=O)Nc3cccnc3)cc2)cc1 | 0.6 (≈ 1.73 µM)

SMILES | solubility kinetic [µg/mL]
CC(C)c1ccc(NC2CCCN(C(=O)c3ccncc3)C2)cc1 (centres undefined) | 47.1 (≈ 146 µM)
CCOc1ccc(NC(=S)N(C)C)cc1 | > 33.6
Cc1c(-c2nc(-c3ccncc3)no2)cccc1[N+](=O)[O-] | 1.7 (≈ 6.02 µM)
COC(=O)C1=C(N)Oc2cc(C)[nH]c(=O)c2C1c1ccccc1OC (centres undefined) | 46.5 (≈ 136 µM)
O=C(COC(=O)Cc1c(F)cccc1Cl)NCc1ccc2c(c1)OCO2 | 46.5 (≈ 122 µM)
CCOc1ccc(NC(=O)c2ccc(-c3csc(C)n3)cc2)cc1 | < 0.4
Cc1ccc(C(=O)NCCCn2ccnc2)cc1C | > 38.6
COc1cc(C)ccc1OCC(=O)OCC(=O)c1ccc[nH]1 | > 45.5
CCOC(=O)c1cnc(-c2ccc(C(F)(F)F)cn2)[nH]c1=O | 46.8 (≈ 149 µM)
O=C(O)c1cc(NC(=O)C2CCCO2)cc(C(=O)O)c1 (centres undefined) | > 41.9
O=C(COc1ccccc1)NCC(=O)NC1CCCCC1 | > 43.6
CC(=O)c1ccc(NC2=NCCCS2)cc1 | > 35.1
O=c1c(C/C=C/c2ccccc2)c(O)ccn1Cc1cccc(Cl)c1 | < 0.8
O=C(c1ccc2ccccc2n1)N1CCN(S(=O)(=O)c2ccc(Cl)cc2)CC1 | 27.4 (≈ 65.9 µM)
CCn1c(SCC(=O)N2CCCC2)nc2c(c1=O)SCC2 | > 48.8
Clc1ccc(-c2nc(N3CCOCC3)nc3ccccc23)cc1 | < 0.2
Cc1ccc(-c2nc3ncccc3o2)cc1NC(=O)C(C)(C)C | 44.4 (≈ 144 µM)
COc1ccccc1C(=O)NCCC(=O)N(C)Cc1ccc(C)o1 | > 49.6
CN(C)S(=O)(=O)c1ccc(C(=O)OCCc2ccccc2)cc1 | 0.9 (≈ 2.7 µM)
